Assay results from patent US11376294B2, “Mangiferin-containing compositions for improving sports performance” (priority 2016, dated 2022).

Experiments:
[1] = test system: Fisher 344 rats; experiment: EEG in rats administered mango leaf extract and/or caffeine, Example 5; assay type: in vivo, rat; conditions: 0.50 mg/kg oral
From the text: After automatic artefact rejection, signals were collected in sweeps of 4 s duration and Fast Fourier transformed using a Hanning window. […] Nine adult male Fisher 344 rats (5 months of age and day-night converted, weight about 350-400 g, were implanted with electrodes into the brain and were given two weeks for recovery from surgery. Three animals dropped the implant after performance of a placebo series. […] A crossover design with at least three days of drug holidays in between drug administrations was used. […] The animals were dosed orally at a constant volume of 1.0 ml/kg per kg body weight. The dosage administered to each animal was determined every day by the weight of that animal at the time of administration. Data were averaged from 5-9 animals, and are expressed as mean values±S.E.M.

[2] = test system: pyramidal cells in hippocampus slices of rat brains; experiment: Ex vivo population spikes in hippocampal slice preparation, Example 6
Experimental: Hippocampus slices of rat brains were tested. After daily administration of trial medication for one week, 4 animals were sacrificed under deep anesthesia and the hippocampus was removed and chopped by a vibrating razor blade to give 6 slices of about […] thickness per animal. Slices were taken one day after the last treatment. After adaptation to artificial cerebrospinal fluid for one hour, slices were transferred to an incubation chamber and superfused with cerebrospinal fluid at 35° C. Schaffer collaterals are branches extending from the axons of CA3 pyramidal cells in the hippocampus. Schaffer collaterals project to the CA1 area of the hippocampus, and are an integral part of memory formation. The Schaffer Collaterals were stimulated by single stimuli or theta burst stimuli, where theta burst stimuli are short bursts of stimulation at high frequencies, applied 5 times per second.

[3] = test system: brain wave activity; experiment: General statements on CNS activity, equivalence, onset and duration after ingestion; assay type: in vivo
[4] = molecular target: T1, MAOA (Homo sapiens, UniProt P21397); conditions: said to underlie anti-depressant-like effect; cited from earlier work
T1 sequence (P21397 1-527): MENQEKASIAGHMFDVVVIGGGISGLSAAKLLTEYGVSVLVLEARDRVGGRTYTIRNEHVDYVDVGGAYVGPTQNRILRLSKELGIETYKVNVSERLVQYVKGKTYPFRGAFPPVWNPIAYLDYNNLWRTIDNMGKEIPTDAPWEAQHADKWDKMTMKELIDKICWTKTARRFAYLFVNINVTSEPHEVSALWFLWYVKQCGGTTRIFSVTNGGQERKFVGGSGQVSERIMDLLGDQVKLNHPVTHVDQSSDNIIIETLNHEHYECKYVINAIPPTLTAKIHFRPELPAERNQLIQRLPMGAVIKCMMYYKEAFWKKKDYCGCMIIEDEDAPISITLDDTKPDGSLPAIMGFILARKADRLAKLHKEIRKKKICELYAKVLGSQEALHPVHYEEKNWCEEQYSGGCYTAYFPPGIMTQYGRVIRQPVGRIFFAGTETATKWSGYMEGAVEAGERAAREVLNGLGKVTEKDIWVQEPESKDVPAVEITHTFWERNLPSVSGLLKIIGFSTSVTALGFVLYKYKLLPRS

[5] = test system: Fisher 344 rats; experiment: EEG (electropharmacogram) in freely moving rats, Example 1; assay type: in vivo, rat; conditions: oral gavage, 5-65 min after administration, FIG. 1
Experimental: Fisher 344 rats (11 months of age and day-night converted, weight about 350-400 g, provided by Charles River Laboratories, D-97633, Sulzfeld) were used in a series of experiments on the effects of various herbal and pharmaceutical products on central nervous system activity. Products were provided to the test subjects orally (gavage).
EEG signals were recorded by telemetry from 4 implanted electrodes in the frontal cortex, hippocampus and striatum of freely moving rats from inside a totally copper shielded room. Signals were collected in sweeps of 4 second duration and Fast Fourier transformed using a Hanning window. EEG signals were recorded over a period starting 5 minutes after administration of the test substances, and ending 65 minutes after administration of the test substances. Sampling frequency was 512 Hz. […] In an off-line procedure the spectra were averaged to give longer periods for further analysis and data presentation. Spectral activity within the frontal cortex, hippocampus, striatum and reticular formation was recorded.

[6] = test system: Fisher 344 rats; experiment: EEG in freely moving rats, two recording periods, Example 2; assay type: in vivo, rat; conditions: oral, FIG. 2B/2C, period not separated
Experimental: Products were provided to the test subjects orally (gavage).
EEG signals were recorded by telemetry from 4 implanted electrodes in the frontal cortex, hippocampus and striatum of freely moving rats from inside a totally copper shielded room.

[7] = molecular target: acetylcholinesterase (Homo sapiens, UniProt P22303); conditions: cited from earlier work
acetylcholinesterase, sequence (P22303 32-614, species assumed): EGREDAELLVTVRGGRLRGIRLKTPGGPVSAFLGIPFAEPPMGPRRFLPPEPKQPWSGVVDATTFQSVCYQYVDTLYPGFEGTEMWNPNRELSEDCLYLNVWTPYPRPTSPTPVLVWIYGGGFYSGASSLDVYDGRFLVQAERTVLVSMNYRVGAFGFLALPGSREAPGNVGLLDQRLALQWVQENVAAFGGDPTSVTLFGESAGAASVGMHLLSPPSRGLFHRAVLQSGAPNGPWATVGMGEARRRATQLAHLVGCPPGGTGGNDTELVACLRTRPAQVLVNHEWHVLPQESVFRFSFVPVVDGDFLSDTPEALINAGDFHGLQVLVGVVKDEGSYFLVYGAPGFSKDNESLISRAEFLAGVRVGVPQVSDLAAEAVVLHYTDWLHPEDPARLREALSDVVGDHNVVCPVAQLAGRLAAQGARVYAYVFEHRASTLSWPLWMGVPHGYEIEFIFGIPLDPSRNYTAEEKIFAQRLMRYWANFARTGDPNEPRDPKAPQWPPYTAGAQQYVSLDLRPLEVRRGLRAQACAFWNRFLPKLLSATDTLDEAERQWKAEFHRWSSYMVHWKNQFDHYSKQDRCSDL

Row | Compound | delta waves in the striatum ([1]; FIG. 6) | delta, theta and beta power in the hippocampus ([1]; FIG. 6) | delta power in the frontal cortex ([1]; FIG. 6, p<0.1) | delta power in the frontal cortex and reticular formation ([1]; from the second hour after administration on) | alpha2 power ([1]; last hour, p<0.05 in the reticular formation) | Amplitude (population spike), Single Stimulation ([2]; SS, slices after one week daily dosing, caffeine 0.5 mg/kg, mango leaf extract 25 mg/kg) | Amplitude (population spike), Theta Burst Stimulation ([2]; TBS, slices after one week daily dosing, caffeine 0.5 mg/kg, mango leaf extract 25 mg/kg) | pyramidal cell activity ([2]; Table 1 and FIG. 11) | caffeine-type side-effects (nausea, fast or irregular pulse, irritability, loss of concentration) ([3]; even at high servings or doses) | dose dependence of CNS stimulation beyond a threshold ([3]; in vivo) | calming activity when ingested ([3]; unlike caffeine) | MAOA inhibition [4] | CNS profile (EEG) compared with reference substances [5] | gamma wave activity in the striatum [6] | acetylcholinesterase inhibition [7]
1 | Cn1c(=O)c2c(ncn2C)n(C)c1=O [Caffeine] | minor but statistically conspicuous decrease | statistically significant attenuation | statistically conspicuous attenuation | statistically significant increases of delta power | increases of alpha2 power were observed except for the striatum | 1.3 (SS) mv | 3.1 (TBS) mv | significantly smaller effect on such activity than mango leaf extract | – | – | – | – | – | – | –
2 | O=c1c2cc(O)c(O)cc2oc2cc(O)c([C@@H]3O[C@H](CO)[C@@H](O)[C@H](O)[C@H]3O)c(O)c12 [Mangiferin] | – | – | – | – | – | – | – | – | none of the well-known side-effects | plateau effect | calming, de-stressing activity | inhibition of MAOA | surprisingly similar to the CNS profiles of reference caffeine, citicolin and Guarana | not observed | acetylcholinesterase inhibiting activity
